# Tests used:
# [1] = Inhibition of Influenza A virus (A/Puerto Rico/8/1934(H1N1)) neuraminidase H259Y mutant using 4-MU-NANA as substrate preincubated for 10 mins followed by substrate addition measured after 1 hr by fluorescence assay
# Influenza A virus [2] = assay: Antiviral activity against Influenza A virus (A/Puerto Rico/8/1934(H1N1)) harboring wild type neuraminidase assessed as inhibition of viral replication preincubated for 36 hrs followed by reinfection in new monolayer of MDCK cells every 1 hr for 12 hrs; assay type: functional
# [3] = Antiviral activity against Influenza A virus (A/Hong Kong/498/97(H3N2)) harboring wild type neuraminidase infected in MDCK cells assessed as inhibition of viral replication preincubated for 36 hrs followed by reinfection in new monolayer of MDCK cells every 1 hr for 24 hrs; assay type: functional, cell-based
# Influenza A virus [4] = assay type: functional, cell-based, A/Puerto Rico/8/1934(H1N1)
# in vitro = conditions: dog, MDCK cells
Compound,IC50 [1],EC50 (Influenza A virus [2]),EC50 [3],EC50 (Influenza A virus [4]),selectivity ratio (in vitro)
CCC(CC)O[C@@H]1C=C(C(=O)O)C[C@H](NC(=N)NC(=O)Cc2ccc(C)cc2)[C@H]1NC(C)=O,132 nM,–,–,–,–
CCC(CC)O[C@@H]1C=C(C(=O)O)C[C@H](NC(=N)NC(=O)c2cccc(C)c2)[C@H]1NC(C)=O,> 1000 nM,–,–,–,–
CCC(CC)O[C@@H]1C=C(C(=O)O)C[C@H](NC(=N)NC(=O)Cc2ccc(Br)cc2)[C@H]1NC(C)=O,40.6 nM,12.9 nM,2.58 nM,69.1 nM,> 14.5
CCCCC(=O)NC(=N)N[C@H]1CC(C(=O)O)=C[C@@H](OC(CC)CC)[C@@H]1NC(C)=O,163 nM,–,–,–,–
CCC(CC)O[C@@H]1C=C(C(=O)O)C[C@H](NC(=N)NC(=O)c2ccncc2)[C@H]1NC(C)=O,36.8 nM,–,–,–,–
CCC(CC)O[C@@H]1C=C(C(=O)O)C[C@H](NC(=N)NC(=O)c2ccc([N+](=O)[O-])cc2)[C@H]1NC(C)=O,57.8 nM,160 nM,39.2 nM,136 nM,> 7.4
CCC(CC)O[C@@H]1C=C(C(=O)O)C[C@H](NC(=N)NC(=O)Cc2ccc3ccccc3c2)[C@H]1NC(C)=O,66.7 nM,8.45 nM,3.95 nM,11.3 nM,> 88.6
CCC(CC)O[C@@H]1C=C(C(=O)O)C[C@H](NC(=N)NC(=O)CCc2ccccc2)[C@H]1NC(C)=O,114 nM,–,–,–,–
CCC(CC)O[C@@H]1C=C(C(=O)O)C[C@H](NC(=N)NC(=O)C(C)C)[C@H]1NC(C)=O,132 nM,–,–,–,–
CCC(CC)O[C@@H]1C=C(C(=O)O)C[C@H](NC(=N)NC(=O)CCc2cccnc2)[C@H]1NC(C)=O,21.1 nM,–,–,–,–
CCC(=O)NC(=N)N[C@H]1CC(C(=O)O)=C[C@@H](OC(CC)CC)[C@@H]1NC(C)=O,74.2 nM,23.9 nM,5.3 nM,37.3 nM,> 26.8
CCC(CC)O[C@@H]1C=C(C(=O)O)C[C@H](NC(=N)NC(=O)Cc2ccccc2C)[C@H]1NC(C)=O,225 nM,–,–,–,–
CCC(CC)O[C@@H]1C=C(C(=O)O)C[C@H](NC(=N)NC(=O)CCc2ccc(OC)c(OC)c2)[C@H]1NC(C)=O,14.5 nM,20.1 nM,5.62 nM,23 nM,> 43.4
C=CCCC(=O)NC(=N)N[C@H]1CC(C(=O)O)=C[C@@H](OC(CC)CC)[C@@H]1NC(C)=O,30.5 nM,24.5 nM,9.45 nM,7.18 nM,> 139
CCC(CC)O[C@@H]1C=C(C(=O)O)C[C@H](NC(=N)NC(=O)CC(C)C)[C@H]1NC(C)=O,445 nM,–,–,–,–
CCCC(=O)NC(=N)N[C@H]1CC(C(=O)O)=C[C@@H](OC(CC)CC)[C@@H]1NC(C)=O,133 nM,–,–,–,–
CCC(CC)O[C@@H]1C=C(C(=O)O)C[C@H](NC(=N)NC(=O)CCCc2ccccc2)[C@H]1NC(C)=O,221 nM,–,–,–,–

# — ChEMBL document CHEMBL4024722, “Discovery of acylguanidine oseltamivir carboxylate derivatives as potent neuraminidase inhibitors” (Bioorg Med Chem, 2017)
